Laboratory results taken from patent publication EP4806894A1, “TNAP INHIBITORY COMPOUND AND USE THEREOF” (Rednvia Co., Ltd., priority 2023, dated 2025).

Experiments:
TNAP = target: T1, TNAP (Homo sapiens, UniProt P05186); experiment: TNAP inhibitory activity, colorimetric assay (alkaline phosphatase assay kit ab83369, pNPP substrate); type: biochemical; details: TNAP enzyme, 2 hours at room temperature, absorbance 405 nm
T1 sequence (P05186 18-502 limits assumed): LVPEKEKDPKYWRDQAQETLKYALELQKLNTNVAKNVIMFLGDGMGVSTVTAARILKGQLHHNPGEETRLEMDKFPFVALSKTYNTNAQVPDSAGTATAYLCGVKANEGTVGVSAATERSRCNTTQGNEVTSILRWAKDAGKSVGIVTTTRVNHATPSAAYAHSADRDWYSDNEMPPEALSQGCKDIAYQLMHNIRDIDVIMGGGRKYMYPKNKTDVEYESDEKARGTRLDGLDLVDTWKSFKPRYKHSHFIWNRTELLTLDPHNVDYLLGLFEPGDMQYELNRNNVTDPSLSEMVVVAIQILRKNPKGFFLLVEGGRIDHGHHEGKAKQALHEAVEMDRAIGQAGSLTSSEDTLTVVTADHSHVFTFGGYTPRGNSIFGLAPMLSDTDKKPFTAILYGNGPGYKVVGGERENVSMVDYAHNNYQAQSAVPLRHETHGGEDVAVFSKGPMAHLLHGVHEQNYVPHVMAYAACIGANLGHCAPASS
Method: The TNAP inhibitory activity of the compounds according to the present invention was analyzed by colorimetric assay.
The experiments were performed according to the protocol of the alkaline phosphatase assay kit ab83369.
TNAP enzyme at a concentration of 0.2 ng/µl was dispensed into a 96-well plate (Costar) (10 µl/well), to which the 10-fold diluted test substance was added (15 µl/well). The plate was incubated at room temperature, shielded from light, for 10 minutes to allow the enzyme and compound to act. After incubation, 125 µl of 1 mM substrate (pNPP) was added to each well of the plate, and the plate was incubated for 2 hours at room temperature in a darkened state to allow the enzyme, substrate, and test compound to act. Absorbance was measured at 405 nm using a microplate reader (Tecan spark), and IC50 was calculated using GraphPad Prism 9. The amount of p-nitrophenol produced was calculated through the absorbance, and the degree of TNAP activity inhibition was evaluated through the degree of inhibition of p-nitrophenol production, and the concentration of the compound that inhibited 50% was calculated as the IC50 value.

saos-2 cells = experiment: Anticalcification efficacy in saos-2 cells (osteogenic medium, Alizarin Red staining); type: cell-based; details: Homo sapiens, 168 h, test compound 1 µM, 7 days osteogenic medium, Alizarin Red absorbance 540 nm, read-out: calcification inhibition
Method: To confirm the inhibitory effect of calcification in saos-2 cells in which calcification is induced by overexpression of TNAP, saos-2 cells were cultured in a culture medium in an incubator at 37°C, 95% humidity, and 5% CO2. RPMI-1640 (Corning) supplemented with 10% FBS (Gibco) and 1% Pen/Strep (Gibco) was used as the culture medium.
Saos-2 cells were seeded in a 48-well plate at the density of 1.5 x 10^4 cells/well and used in the experiment when they reached 80-90% confluence after stabilization for 2 days.
After saos-2 cells were cultured in a 48-well plate to 80-90% confluence, the culture medium was removed and replaced with an osteogenic medium (OM). DMEM (Gibco) containing 10% FBS, 1% Pen/Strep, 100 nM dexamethasone (Sigma), 10 mM β-glycerophosphate (Sigma), and 0.05 mM L-ascorbic acid (Sigma) was used as the OM. Osteogenic differentiation of saos-2 cells by OM was induced for 7 days, and OM was replaced every 2 to 3 days.
When inducing calcification through OM in saos-2 cells, the cells were treated with concentrations of […] of the TNAP inhibitor test compounds with the OM replacement cycle, except for the control group (OM).
After 7 days of OM induction, the medium was removed from each well and the plate was washed twice with PBS. Cells were fixed with 4% paraformaldehyde for 1 hour, then the fixative was removed and washed twice with deionized water (DW). ARS solution was added to the plate and shaken for 1 hour to stain the cells. When the cells were sufficiently stained red, the dye was removed, the cells were washed carefully with DW, dried, and then photographs were taken of the stained cells. The red-stained area represents calcification induced by OM, and the degree of calcification was determined based on the degree of redness. To quantify this, 10% cetylpyridinium chloride was dispensed into the wells and the dye was dissolved. The dye-dissolved solution was transferred to each well of a 96 well plate and absorbance was measured at 540 nm.
The degree of decrease in the measured absorbance by the test compounds based on the absorbance for OM was evaluated as the degree of inhibition of calcification.

IC50 (TNAP)	SMILES	inhibition at 1 µM (saos-2 cells)
100 to 1000 nM	COC(=O)Cc1ccc(-c2ccc(OC)c(S(=O)(=O)Nc3cnc4c(c3)C(=O)NC4)c2)cc1 [Example 27, methyl 2-(4'-methoxy-3'-(N-(5-oxo-6,7-dihydro-5H-pyrrolo[3,4-b]pyridine-3-yl)sulfamoyl)-[1,1'-biphenyl]-4-yl)acetate]	≥ 50%
10 to 100 nM	COc1ccc(-c2ccc(CC(=O)O)cc2)cc1S(=O)(=O)Nc1cnc2c(c1)C(=O)NC2 [Example 28, 2-(4'-methoxy-3'-(N-(5-oxo-6,7-dihydro-5H-pyrrolo[3,4-b]pyridine-3-yl)sulfamoyl)-[1,1'-biphenyl]-4-yl)acetic acid]	≥ 50%
100 to 1000 nM	COc1ccc(-c2ccc3c(c2)OCCO3)cc1S(=O)(=O)Nc1cnc2c(c1)C(=O)NCC2 [Example 29, 5-(2,3-dihydrobenzo[b][1,4]dioxine-6-yl)-2-methoxy-N-(5-oxo-5,6,7,8-tetrahydro-1,6-naphthyridine-3-yl)benzenesulfonamide]	≥ 50%
≥ 1000 nM	COc1ccc(-c2ccc(OC)c(S(=O)(=O)Nc3cnc4c(c3)C(=O)NCC4)c2)cc1 [Example 30, 4,4'-dimethoxy-N-(5-oxo-5,6,7,8-tetrahydro-1,6-naphthyridine-3-yl)-[1,1'-biphenyl]-3-sulfonamide]	0 to 50%
100 to 1000 nM	COc1ccc(-c2ccncc2)cc1S(=O)(=O)Nc1cnc2c(c1)C(=O)NCC2 [Example 31, 2-methoxy-N-(5-oxo-5,6,7,8-tetrahydro-1,6-naphthyridine-3-yl)-5-(pyridine-4-yl)benzenesulfonamide]	≥ 50%
10 to 100 nM	COc1ccc(-c2ccc(C3(C(=O)O)CC3)cc2)cc1S(=O)(=O)Nc1cnc2c(c1)C(=O)NCC2 [Example 32, 1-(4'-methoxy-3'-(N-(5-oxo-5,6,7,8-tetrahydro-1,6-naphthyridine-3-yl)sulfamoyl)-[1,1'-biphenyl]-4-yl)cyclopropane-1-carboxylic acid]	≥ 50%
10 to 100 nM	COc1ccc(-c2ccc(CC(=O)O)cc2)cc1S(=O)(=O)Nc1cnc2c(c1)C(=O)NCC2 [Example 33, 2-(4'-methoxy-3'-(N-(5-oxo-5,6,7,8-tetrahydro-1,6-naphthyridine-3-yl)sulfamoyl)-[1,1'-biphenyl]-4-yl)acetic acid]	≥ 50%
100 to 1000 nM	COc1ccc(-c2ccc(C(=O)O)cc2)cc1S(=O)(=O)Nc1cnc2c(c1)C(=O)NCC2 [Example 34, 4'-methoxy-3'-(N-(5-oxo-5,6,7,8-tetrahydro-1,6-naphthyridine-3-yl)sulfamoyl)-[1,1'-biphenyl]-4-carboxylic acid]	≥ 50%
≤ 10 nM	O=C(O)Cc1ccc(-c2ccc(F)cc2S(=O)(=O)Nc2cnc3c(c2)C(=O)NCC3)cc1 [Example 35, 2-(4'-fluoro-2'-(N-(5-oxo-5,6,7,8-tetrahydro-1,6-naphthyridine-3-yl)sulfamoyl)-[1,1'-biphenyl]-4-yl)acetic acid]	≥ 50%
10 to 100 nM	O=C1NCCc2ncc(NS(=O)(=O)c3cc(F)ccc3-c3ccc(C4(C(=O)O)CC4)cc3)cc21 [Example 36, 1-(4'-fluoro-2'-(N-(5-oxo-5,6,7,8-tetrahydro-1,6-naphthyridine-3-yl)sulfamoyl)-[1,1'-biphenyl]-4-yl)cyclopropane-1-carboxylic acid]	≥ 50%
≥ 1000 nM	O=C1NCCc2ncc(NS(=O)(=O)c3c(F)cc(F)cc3-c3ccc(C4(C(=O)O)CC4)cc3)cc21 [Example 37, 1-(3',5'-difluoro-2'-(N-(5-oxo-5,6,7,8-tetrahydro-1,6-naphthyridine-3-yl)sulfamoyl)-[1,1'-biphenyl]-4-yl)cyclopropane-1-carboxylic acid]	< 0%
